# Measurements taken from patent US20240398806A1, “Compositions For and Methods of Treating and/or Preventing Pain” (Duke University, priority 2021, published 2024).
# Where two headings read alike, the source gives them in different places.
# How the values were obtained:
# NMDAR = type: cell-based; settings: Arrb2-KO mice; NMDA 50 mM as printed
# Method: In FIG. 9B-FIG. 9D. *p<0.05 as determined by a two-way or one-way ANOVA.
# Spinal cord NMDAR plays a critical role in driving inflammatory and neuropathic pain (Woolf C J, et al. (2000) Science. 288(5472):1765-1769). Using spinal cord slice preparations, NMDA (50 mM) induced inward currents in spinal cord out lamina II (IIo) neurons were recorded in WT and Arrb2-KO mice. […] Similarly, duration of intrathecal (i.t.) NMDA-induced spontaneous pain was also potentiated in the KO mice (FIG. 9C).
# NTSR1 [1] = target: T1, NTSR1 (Homo sapiens, UniProt P30989); test: Cellular assay of β-arrestin-2 translocation in cells expressing NTSR1; type: cell-based; parameters: expressed in transfected cells; host or cells: HEK293T cell membranes
# T1 sequence (P30989 whole entry): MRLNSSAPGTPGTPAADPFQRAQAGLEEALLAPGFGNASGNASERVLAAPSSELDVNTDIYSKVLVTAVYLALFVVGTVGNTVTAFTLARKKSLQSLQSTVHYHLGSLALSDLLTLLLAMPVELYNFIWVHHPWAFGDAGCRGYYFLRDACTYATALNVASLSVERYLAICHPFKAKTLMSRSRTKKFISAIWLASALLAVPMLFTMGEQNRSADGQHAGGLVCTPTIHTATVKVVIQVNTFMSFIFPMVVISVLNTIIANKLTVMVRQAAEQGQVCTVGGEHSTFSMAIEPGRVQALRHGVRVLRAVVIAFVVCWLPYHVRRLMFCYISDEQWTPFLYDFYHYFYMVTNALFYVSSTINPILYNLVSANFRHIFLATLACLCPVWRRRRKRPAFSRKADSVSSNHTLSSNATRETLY
# Method: (§1) First, using cellular assays, whether IND candidates such as SBI-810 are similar or better than SBI-553 as β-arrestin biased agonist at NTSR1. is assessed. The chemical entities used in this work were synthesized and validated. However, routine validation of the profile of these compounds is performed routinely using both cellular and in vivo assays. For example, HEK293 cells that express either the NTSR1 or NTSR2 are used to assess the functional profile of the various chemical probes. In addition, a series of genetically engineered mouse lines are used to provide an in vivo validation of novel chemical entities for their abilities to module behaviors in these animals.
# (§2) Fourth, cellular assays are used to establish that IND ready analogs like SBI-810 are still selective for the NTSR1 rather than NTSR2. The specificity of the lead compounds toward NTSR1. NTSR2. and β-arrestin-2 are tested in respective cellular assays. More specifically, cells expressing either NTSR1 or NTSR2 are used to assess the function of various compound. […] This translocation is not observed in cells expressing NTSR2.
# (§3) Fourth, genetically engineered mice are used to assess the effects and mechanisms of novel ligands. The specificity of the lead compounds toward NTSR1, NTSR2, and β-arrestin-2 dependent signaling is examined. […]
# [2] = Pain models with systemic (IP or oral) administration; type: in vivo, mice and rats
# NTSR2 = target: T2, NTSR2 (Homo sapiens, UniProt O95665); test: Cellular assay of β-arrestin-2 translocation in cells expressing NTSR2; type: cell-based
# T2 construct: expressed in transfected cells; host or cells: HEK293 cells
# T2 sequence (O95665 whole entry, species assumed): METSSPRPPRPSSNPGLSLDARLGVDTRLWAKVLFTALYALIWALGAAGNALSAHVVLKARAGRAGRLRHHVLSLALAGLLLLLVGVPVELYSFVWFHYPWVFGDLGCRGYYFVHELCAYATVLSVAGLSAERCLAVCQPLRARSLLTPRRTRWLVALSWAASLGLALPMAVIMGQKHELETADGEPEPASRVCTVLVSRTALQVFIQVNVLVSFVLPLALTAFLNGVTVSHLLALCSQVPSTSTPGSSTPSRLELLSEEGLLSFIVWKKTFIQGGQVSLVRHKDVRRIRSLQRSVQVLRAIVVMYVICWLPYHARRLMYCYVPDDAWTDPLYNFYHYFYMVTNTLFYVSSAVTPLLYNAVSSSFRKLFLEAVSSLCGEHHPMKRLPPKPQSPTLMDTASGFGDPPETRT
# Method: as §1, §2, §3
# [3] = Pharmacokinetics in monkey (IV and PO); type: in vivo; settings: for AUC: monkey; for MRT last: read-out: MRT0-last
# NTSR1 [4] = target: T1, NTSR1; test: [3H]SBI-553 saturation binding to NTSR1-containing HEK293T cell membranes; parameters: expressed in transfected cells; host or cells: HEK293T cell membranes; settings: by the named competitor
# lamina IIo neurons = tested on: lamina IIo neurons; parameters: dose or concentration left out as unconfirmed; settings: slices of PTX-treated mice
smiles,measurement,setting,value
C[C@@H](CN1CCC(Cc2ccccc2)CC1)[C@@H](O)c1ccc(O)cc1 [Ro25],Block of the increase in NMDA current amplitude caused by Arrb2 deficiency,NMDAR,dose-dependently blocked
COc1ccccc1C1CCN(c2nc(C3(C)CC3)nc3ccc(N(C)CCO)cc23)CC1 [SBI-810],Translocation of β-arrestin-2 to intracellular compartments,NTSR1 [1],demonstrate translocation of β-arrestin-2
same,Pain reduction compared with SBI-553,[2],more effective in reducing pain than SBI-553
same,Translocation of β-arrestin-2 to intracellular compartments,NTSR2,not observed
same,Co,"[3]; Monkey, IV 5 mg/kg",4702 ng/mL
same,T2/2,"[3]; Monkey, IV 5 mg/kg",6.54 h
same,CI,"[3]; Monkey, PO 20 mg/kg",5.2 mL/min/kg
same,Co,"[3]; Monkey, PO 20 mg/kg",314 ng/mL
same,Oral availability,[3]; compared with SBI-553,enhanced oral availability
same,Levels in plasma,[3]; following i.v. and p.o. dosing,good levels in plasma
same,AUC,"[3]; plasma, iv, 5 mg/kg, Monkey, IV 5 mg/kg, read-out: AUCo-inf",4340 ng·h/mL
same,AUC,"[3]; plasma, iv, 5 mg/kg, Monkey, IV 5 mg/kg, read-out: AUCo-last",4210 ng·h/mL
same,AUC,"[3]; plasma, po, 20 mg/kg, Monkey, PO 20 mg/kg, read-out: AUCo-inf",2230 ng·h/mL
same,AUC,"[3]; plasma, po, 20 mg/kg, Monkey, PO 20 mg/kg, read-out: AUCo-last",2120 ng·h/mL
same,clearance,"[3]; plasma, Monkey, IV 5 mg/kg",19.2 mL/min/kg
same,MRT last,"[3]; plasma, Monkey, IV 5 mg/kg",3.4 h
same,Vd,"[3]; plasma, Monkey, IV 5 mg/kg, read-out: Vdss",5 L/kg
same,half-life,"[3]; plasma, Monkey, PO 20 mg/kg",4 h
same,MRT last,"[3]; plasma, Monkey, PO 20 mg/kg",8 h
"COc1cccc(OC)c1-c1cc(C(=O)NC2(C(=O)O)C3CC4CC(C3)CC2C4)nn1-c1ccc(C(=O)N(C)CCCN(C)C)cc1C(C)C (stereo not drawn) [SR142948A, reference compound]",Displacement of [3H]SBI-553 from NTSR1,NTSR1 [4],not displaced
"CN1CC[C@]23c4c5ccc(O)c4O[C@H]2[C@@H](O)C=C[C@H]3[C@H]1C5 [morphine, reference compound]",Excitatory synaptic transmission (sEPSCs) in lamina IIo neurons,lamina IIo neurons,did not produce significant inhibition
